Reference: paper PMC9516332 (Frontiers in Oncology, 2022)
Like-named read-outs stand apart in the source and are kept apart here.

What was measured:
Test in all cases: Kinase panel profiling at 1 µmol/L (MSA or IMAP), percentage inhibition
Format in all cases: biochemical
[1] = target: panel of 255 wild-type kinases (Homo sapiens, UniProt P11802); conditions: CDK4/CycD3 kinase assay; 1 µmol/L single concentration; read-out: %-inhibition CDK4/CycD3
[2] = target: T1, panel of 255 wild-type kinases (Homo sapiens, UniProt P41743); conditions: kinase PKCι; 1 µmol/L single concentration; read-out: %-inhibition at 1 µmol/L, PKCι
T1 sequence (P41743 1-596): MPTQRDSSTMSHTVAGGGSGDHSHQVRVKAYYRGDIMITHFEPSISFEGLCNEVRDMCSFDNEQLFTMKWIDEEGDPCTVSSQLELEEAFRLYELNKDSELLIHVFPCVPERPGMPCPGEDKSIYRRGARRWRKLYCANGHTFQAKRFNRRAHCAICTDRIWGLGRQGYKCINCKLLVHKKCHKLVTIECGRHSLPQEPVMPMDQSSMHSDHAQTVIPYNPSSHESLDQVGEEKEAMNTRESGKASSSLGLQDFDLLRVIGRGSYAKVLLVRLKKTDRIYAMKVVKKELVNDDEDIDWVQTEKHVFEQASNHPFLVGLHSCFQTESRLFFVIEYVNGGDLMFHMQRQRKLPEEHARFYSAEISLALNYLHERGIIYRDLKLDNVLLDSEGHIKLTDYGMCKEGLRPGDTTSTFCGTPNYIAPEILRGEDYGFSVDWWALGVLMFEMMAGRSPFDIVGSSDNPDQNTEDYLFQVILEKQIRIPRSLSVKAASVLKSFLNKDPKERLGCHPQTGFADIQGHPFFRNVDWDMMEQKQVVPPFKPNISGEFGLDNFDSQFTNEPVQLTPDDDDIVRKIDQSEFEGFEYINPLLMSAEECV

[3] = target: panel of 255 wild-type kinases (Homo sapiens, UniProt Q8IU85); conditions: CaMK1δ kinase assay; 1 µmol/L single concentration; read-out: %-inhibition CaMK1δ
[4] = target: panel of 255 wild-type kinases (Homo sapiens, UniProt P10721); conditions: read-out: %-inhibition at 1 µmol/L, KIT
[5] = target: panel of 255 wild-type kinases (Homo sapiens, UniProt Q9Y6E0); conditions: MST3; 1 µmol/L single concentration; read-out: %-inhibition, MST3
[6] = target: T2, panel of 255 wild-type kinases (Homo sapiens, UniProt P42680); conditions: kinase TEC; 1 µmol/L single concentration; read-out: %-inhibition at 1 µmol/L, TEC
T2 sequence (P42680 1-631): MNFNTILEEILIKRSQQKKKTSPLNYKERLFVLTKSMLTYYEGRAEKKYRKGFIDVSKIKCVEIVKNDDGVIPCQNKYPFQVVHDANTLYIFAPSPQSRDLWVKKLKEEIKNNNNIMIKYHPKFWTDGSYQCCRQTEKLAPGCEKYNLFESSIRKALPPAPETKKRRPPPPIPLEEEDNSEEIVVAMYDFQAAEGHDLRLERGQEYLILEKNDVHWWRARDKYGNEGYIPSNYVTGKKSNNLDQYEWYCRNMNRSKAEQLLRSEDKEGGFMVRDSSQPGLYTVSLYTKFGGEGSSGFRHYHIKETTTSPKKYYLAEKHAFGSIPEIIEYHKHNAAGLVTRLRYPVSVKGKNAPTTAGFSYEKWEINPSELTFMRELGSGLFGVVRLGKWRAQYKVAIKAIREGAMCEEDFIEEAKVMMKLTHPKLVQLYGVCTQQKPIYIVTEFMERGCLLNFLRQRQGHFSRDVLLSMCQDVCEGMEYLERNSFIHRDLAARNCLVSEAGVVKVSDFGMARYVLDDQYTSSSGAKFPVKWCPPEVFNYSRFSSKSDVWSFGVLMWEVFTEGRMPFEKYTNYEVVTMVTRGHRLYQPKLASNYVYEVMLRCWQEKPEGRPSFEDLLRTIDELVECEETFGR

[7] = target: panel of 255 wild-type kinases (Homo sapiens, UniProt P48730); conditions: kinase CK1δ; 1 µmol/L single concentration; read-out: %-inhibition at 1 µmol/L, CK1δ
[8] = target: panel of 255 wild-type kinases (Homo sapiens, UniProt Q9BYP7); conditions: kinase WNK3; 1 µmol/L single concentration; read-out: %-inhibition at 1 µmol/L, WNK3
[9] = target: panel of 255 wild-type kinases (Homo sapiens, UniProt Q00534); conditions: CDK6/CycD3 kinase assay; 1 µmol/L single concentration; read-out: %-inhibition CDK6/CycD3
[10] = target: panel of 255 wild-type kinases (Homo sapiens, UniProt Q9Y3S1); conditions: kinase WNK2; 1 µmol/L single concentration; read-out: %-inhibition at 1 µmol/L, WNK2
[11] = target: panel of 255 wild-type kinases (Homo sapiens, UniProt Q06187); conditions: BTK kinase assay; 1 µmol/L single concentration; read-out: %-inhibition BTK
[12] = target: panel of 255 wild-type kinases (Homo sapiens, UniProt P78368); conditions: kinase CK1γ2; 1 µmol/L single concentration; read-out: %-inhibition at 1 µmol/L, CK1γ2
[13] = target: panel of 255 wild-type kinases (Homo sapiens, UniProt O60674); conditions: kinase JAK2; 1 µmol/L single concentration; read-out: %-inhibition at 1 µmol/L, JAK2
[14] = target: T3, panel of 255 wild-type kinases (Homo sapiens, UniProt P51817); conditions: kinase PRKX; 1 µmol/L single concentration; read-out: %-inhibition at 1 µmol/L, PRKX
T3 sequence (P51817 1-358): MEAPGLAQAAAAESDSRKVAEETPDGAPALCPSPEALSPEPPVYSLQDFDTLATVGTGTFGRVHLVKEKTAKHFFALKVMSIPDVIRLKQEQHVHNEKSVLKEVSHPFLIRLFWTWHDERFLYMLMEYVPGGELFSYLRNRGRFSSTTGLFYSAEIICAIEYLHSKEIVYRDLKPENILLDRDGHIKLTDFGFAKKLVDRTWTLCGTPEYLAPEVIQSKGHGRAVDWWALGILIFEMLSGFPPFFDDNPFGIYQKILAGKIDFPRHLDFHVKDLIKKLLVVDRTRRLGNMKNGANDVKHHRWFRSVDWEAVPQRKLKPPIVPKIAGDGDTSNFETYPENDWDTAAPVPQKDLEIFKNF

[15] = kinase KIT, 1 µmol/L single concentration

SMILES | inhibition at 1 µM [1] | inhibition at 1 µM [2] | inhibition at 1 µM [3] | inhibition at 1 µM [4, 15] | inhibition at 1 µM [5] | inhibition at 1 µM [6] | inhibition at 1 µM [7] | inhibition at 1 µM [8] | inhibition at 1 µM [9] | inhibition at 1 µM [10] | inhibition at 1 µM [11] | inhibition at 1 µM [12] | inhibition at 1 µM [13] | inhibition at 1 µM [14] | inhibition at 1 µM [4]
CN1CCN(c2ccc(C(=O)Nc3n[nH]c4ccc(Cc5cc(F)cc(F)c5)cc34)c(NC3CCOCC3)c2)CC1 [entrectinib] | -7.43% | 34% | 16% | 21% | 7.48% | 97% | -5% | 8.51% | 1.6% | 2.24% | 97% | 0.857% | 100% | 2.19% | –
CCc1nc(C(N)=O)c(Nc2ccc(N3CCC(N4CCN(C)CC4)CC3)c(OC)c2)nc1NC1CCOCC1 [gilteritinib] | 46% | 28% | 39% | 71% | 5% | 44% | 25% | 5% | 4% | -1% | 81% | 6.55% | 95% | 4% | –
O=C(Nc1cnn2ccc(N3CCC[C@@H]3c3cc(F)ccc3F)nc12)N1CC[C@H](O)C1 [larotrectinib] | -0.745% | -6% | 3.44% | -5% | 1.65% | 1.59% | -8% | -0.6% | -0.0563% | -2% | -3.71% | -7% | 46% | 0.637% | –
C[C@H]1Oc2cc(cnc2N)-c2c(nn(C)c2C#N)CN(C)C(=O)c2ccc(F)cc21 [lorlatinib] | -7% | 19% | 7% | 4.22% | -1.26% | 3% | -6.46% | 6% | 2.65% | -0.739% | 1.48% | 2.14% | 69% | 3.38% | –
CCN1C(=O)N(c2c(F)c(OC)cc(OC)c2F)Cc2cnc3[nH]c(CN4CCOCC4)cc3c21 [pemigatinib] | 9% | -4% | 17% | – | 80% | -1.55% | -4.55% | -0.586% | 48% | -1.88% | -5.29% | -9% | -2.85% | -1.75% | 23%
FC(F)(F)c1ccc(CNc2ccc(Cc3c[nH]c4ncc(Cl)cc34)cn2)cn1 [pexidartinib] | -1.58% | 23% | 4% | 87% | 5% | -0.0585% | -3.46% | 0.624% | -6.52% | -1.8% | -0.863% | -0.864% | 35% | 15% | –
CO[C@]1(C(=O)N[C@@H](C)c2ccc(-n3cc(F)cn3)nc2)CC[C@H](c2nc(C)cc(Nc3cc(C)[nH]n3)n2)CC1 [pralsetinib] | -1% | -7.5% | -7.54% | 83% | 8% | 95% | 0.94% | 0.505% | -1.2% | -1% | 53% | -13% | 98% | -0.557% | –
COc1ccc(CN2C3CC2CN(c2ccc(-c4cc(OCC(C)(C)O)cn5ncc(C#N)c45)cn2)C3)cn1 [selpercatinib] | 0.921% | -0.803% | 9% | 54% | 6% | 37% | -1.7% | -1.49% | 0.675% | -2.37% | 17% | -2.46% | 27% | 55% | –
Cn1cnc2c(F)c(Nc3ccc(Br)cc3Cl)c(C(=O)NOCCO)cc21 [selumetinib] | -1.85% | -6.5% | -3.34% | -2.4% | 3% | 16% | -1.44% | -1.43% | -3.49% | -4% | 52% | -1.66% | -0.0152% | -4.53% | –
Cc1cc(Nc2ncnc3ccc(NC4=NC(C)(C)CO4)cc23)ccc1Oc1ccn2ncnc2c1 [tucatinib] | -2% | -2.24% | -3.73% | -1.27% | 10% | 18% | -2.17% | 3% | -2.12% | 0.536% | 21% | -4% | 4.51% | -1.54% | –
